Key:
[1] = biological target: T1, Human recombinant integrin αvβ1 (Homo sapiens, UniProt P05556+P06756); test: Thermal shift assay (differential scanning fluorimetry), αvβ1; format: binding; conditions: αvβ1, 20 μM Compound A
T1 construct: purchased R&D Systems
Experimental: Differential scanning fluorimetry was performed on a LightCycler 480 II, real-time PCR instrument (Roche Diagnostics). Human recombinant integrins from R&D Systems (αvβ1, αvβ3 and α5β1) were reconstituted at a concentration of […] in assay buffer (20 mM HEPES, pH=7.3, 100 mM NaCl, 1 mM MgCl2, 1 mM MnCl2) and diluted in assay buffer with Sypro orange (SIGMA) to a final concentration of 400 nM integrin and 5× Sypro orange. A volume of 4.9 μL of this mixture of protein and dye was transferred to a 384-well plate and 100 nL of DMSO or Compound A, dissolved in DMSO, were added using an Echo 555 instrument (Labcyte). The final concentration of Compound A in the assay was 20 μM. After mixing, the assay plate was sealed, spun at 1,000×g for two minutes, and subsequently heated from 25 to 99° C. over the course of 31 min in the LightCycler 480 II instrument. Fluorescence intensity was measured using excitation/emission wavelengths of 465 and 580 nm, respectively. Changes in protein thermal stability (ΔTm) upon compound binding were analyzed by using LightCycler 480 (software provided by the manufacturer).

human podocytes = test: Oris cell migration assay, podocyte motility, Compound A alone, vitronectin coated plate; format: cell-based; conditions: for % migrated cells vs control cells: 48 h, VN plate
Experimental: The effects of Compound A on podocyte motility were evaluated using Oris cell migration assay kit in 96-well plates (coated with either vitronectin or fibronectin). The Oris™ Cell Migration Assay is designed with a unique cell seeding stopper or biocompatible gel, detection mask, and stopper tool. These unique plate designs generate highly reproducible results using a microscope, digital imaging system. 7 to 10-day differentiated human podocytes (100 ul of 50,000 cells/ml) were seeded in each well of the ORIS plate. After sitting at room temperature for about 15 minutes, the plate was placed into 37° C. incubator and podocytes were incubated with complete podocyte medium for 24 h. Stoppers from each well (keeping stoppers in 4 wells which were served as time zero control) were carefully removed, medium discarded, and fresh (10% FBS) podocyte medium added to each well. Podocytes were pretreated with Compound A (10 uM to 0.01 nM) for 2 h prior to puromycin animonucleoside (PAN, 30 ug/ml or 15 ug/ml) treatment. Podocytes were then treated with PAN in the presence or absence of Compound A at different concentrations (ranging from 10 uM to 0.01 nM) in 10% FBS medium for 48 h. Podocytes were then fixed with 4% paraformaldehyde in PBS for 30 minutes (adding 50 ul to each well). After discarding the fixative, podocytes were stained with Hoechst 33342 (stock […] working concentration at 5 uM) for 30 min. Podocytes were then washed with PBS three times. Finally, after adding 100 ul of PBS to each well, plate was sealed with a black cover and kept at 4° C. until image analysis. Images of podocyte motility were captured using Acumen eX3 (manufacturer TTP Labtech Ltd. address: Melbourn Science Park, Melbourn, Hertfordshire SG8 6EE, United Kingdom).
Effect of Compound A (“A”) alone on human podocyte motility was examined using Oris cell migration assay in vitronectin (VN) coated-96-well plate.

T1 sequence (P06756 31-992 limits assumed): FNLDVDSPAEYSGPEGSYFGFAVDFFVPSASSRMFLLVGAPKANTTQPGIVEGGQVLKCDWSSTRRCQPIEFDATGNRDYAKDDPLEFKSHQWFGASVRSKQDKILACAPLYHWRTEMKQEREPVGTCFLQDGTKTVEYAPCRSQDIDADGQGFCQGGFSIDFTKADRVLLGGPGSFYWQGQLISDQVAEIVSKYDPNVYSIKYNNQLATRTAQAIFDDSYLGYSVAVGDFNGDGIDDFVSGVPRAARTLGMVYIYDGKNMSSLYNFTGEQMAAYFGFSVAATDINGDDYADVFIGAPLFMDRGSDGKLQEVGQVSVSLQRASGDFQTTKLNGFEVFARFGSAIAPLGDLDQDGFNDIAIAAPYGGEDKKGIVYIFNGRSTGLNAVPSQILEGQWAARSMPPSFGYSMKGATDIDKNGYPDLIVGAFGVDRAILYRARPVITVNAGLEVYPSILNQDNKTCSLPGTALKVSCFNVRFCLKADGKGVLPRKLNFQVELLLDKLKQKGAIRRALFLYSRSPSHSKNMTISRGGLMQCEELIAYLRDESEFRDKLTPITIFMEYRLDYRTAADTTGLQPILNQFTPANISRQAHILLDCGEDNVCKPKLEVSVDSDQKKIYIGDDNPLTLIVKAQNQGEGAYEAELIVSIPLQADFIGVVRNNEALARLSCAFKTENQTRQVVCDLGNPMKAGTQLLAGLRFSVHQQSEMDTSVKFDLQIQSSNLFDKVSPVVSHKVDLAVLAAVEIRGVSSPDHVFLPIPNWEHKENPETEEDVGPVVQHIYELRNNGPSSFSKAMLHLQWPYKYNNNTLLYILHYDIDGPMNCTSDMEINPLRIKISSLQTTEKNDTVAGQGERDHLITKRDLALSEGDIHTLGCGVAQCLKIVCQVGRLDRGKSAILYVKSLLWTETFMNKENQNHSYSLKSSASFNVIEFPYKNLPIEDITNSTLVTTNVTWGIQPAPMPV
T1 sequence (P05556 21-728 limits assumed): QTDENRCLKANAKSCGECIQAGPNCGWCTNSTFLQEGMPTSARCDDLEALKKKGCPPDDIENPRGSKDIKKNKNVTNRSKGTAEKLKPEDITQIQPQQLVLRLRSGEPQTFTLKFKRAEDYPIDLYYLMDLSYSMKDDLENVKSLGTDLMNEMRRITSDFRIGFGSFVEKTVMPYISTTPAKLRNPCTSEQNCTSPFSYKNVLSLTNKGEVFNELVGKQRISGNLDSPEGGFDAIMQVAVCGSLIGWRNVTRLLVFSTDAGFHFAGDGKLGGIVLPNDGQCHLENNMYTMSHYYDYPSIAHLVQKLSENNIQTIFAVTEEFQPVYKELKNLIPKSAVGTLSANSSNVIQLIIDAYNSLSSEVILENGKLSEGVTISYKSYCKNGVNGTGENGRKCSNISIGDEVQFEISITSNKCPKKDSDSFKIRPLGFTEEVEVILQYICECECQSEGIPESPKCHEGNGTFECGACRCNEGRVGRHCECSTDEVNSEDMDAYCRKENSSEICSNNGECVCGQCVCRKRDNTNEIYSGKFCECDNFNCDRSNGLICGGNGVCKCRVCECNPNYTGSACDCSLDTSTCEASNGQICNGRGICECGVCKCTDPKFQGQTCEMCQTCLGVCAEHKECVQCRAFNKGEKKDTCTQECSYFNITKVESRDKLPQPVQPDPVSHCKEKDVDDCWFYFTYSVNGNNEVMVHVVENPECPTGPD

ΔTm at 20 µM ([1]; first of two experiments): 19.4 °C
ΔTm at 20 µM ([1]; second of two experiments): 15.6 °C
SMILES: COc1ccc([C@H](CC(=O)O)N2CCN(CCCc3ccc4c(n3)NCCC4)C2=O)cn1 [Compound A, 3-{2-Oxo-3-[3-(5,6,7,8-tetrahydro-[1,8]naphthyridin-2-yl)-propyl]imidazolidin-1-yl}-3 (S)-(6-methoxy-pyridin-3-yl)-propionic acid]
human podocyte motility, Compound A alone vs vehicle (human podocytes; 48 hours, vitronectin coated plate): significant inhibition of motility in a dose-dependent manner
% migrated cells vs control cells (human podocytes; A alone 0.01 nM): 39.7%
% migrated cells vs control cells (human podocytes; A alone 0.0316 nM): 43.7%
% migrated cells vs control cells (human podocytes; A alone 0.1 nM): 38.8%
% migrated cells vs control cells (human podocytes; A alone 0.316 nM): 38.6%
% migrated cells vs control cells (human podocytes; A alone 1 nM): 33.4%
% migrated cells vs control cells (human podocytes; A alone 3.16 nM): 30.6%
% migrated cells vs control cells (human podocytes; A alone 10 nM): 19.2%
% migrated cells vs control cells (human podocytes; A alone 100 nM): 20.5%
% migrated cells vs control cells (human podocytes; A alone 1 uM): 17.9%
% migrated cells vs control cells (human podocytes; A alone 10 uM): 17.9%
